In one assay the target is QPP (Homo sapiens, UniProt Q9UHL4). Put plainly: AlaProAFC cleavage by PBMC cytosolic preparation (QPP peptidase activity). The settings on record: for QPP inhibition (inhibitory profile): comparison with DPIV profile. The class given is biochemical.
In a further assay the target is DPIV (Homo sapiens, UniProt P27487). Particulars: cited from earlier work.
In assay [1] the test system is purified T-cells (CD4+/CD8+). In words: VbP-induced death of purified resting T-cells. The settings on record: for effect on VbP-mediated T-cell death: added with VbP, non-cycling T-cells. The class given is cell-based, human. The text has this:
(§1) Methods. […] Sorted cell populations were >90% pure.

The test system of another assay is CD19+ B cells. In words: VbP-induced death of B cells. The class given is cell-based, human.
For a further assay, the system named is CD11b+ monocytes. Put plainly: VbP-induced death of monocytes. The format is cell-based, human.
The subject of the next assay is activated PBMC. In words: Induced death of activated PBMC (PHA blasts) and long term cultured cells. The format is cell-based, human.
Description: as §1

Assay [2] deals with phosphatidylserine (PS) on the surface of cells. Put plainly: FITC-annexin V detection of surface phosphatidylserine. The settings on record: cells treated with VbP. The format is cell-based, human.
Assay [3] relates to peripheral blood mononuclear cells (PBMC). Put plainly: Cell death in overnight cultures of freshly isolated PBMC. Particulars: for number of dead cells / PCD induction in resting PBMC cultures: compared to media alone.
Assay [4] has as its system serum-starved, G0 phase fibroblasts. In words: Apoptosis of serum-starved G0 fibroblasts transfected with QPP transgene. The class given is cell-based. Particulars: compared to non-QPP transfected fibroblasts. An excerpt: The role of QPP in protecting quiescent (non-cycling) cells from death was confirmed in fibroblasts transfected with a QPP transgene sequence using standard techniques.

[5] abbreviates: PBMC cytosolic preparation, high concentrations.

Where two headings read alike, the source gives them in different places. Peptide text beside a SMILES is read from it. * marks the point of attachment. Cbz = O=C(OCc1ccccc1)*; CH2F = FC*

DPIV, sequence (P27487 whole entry): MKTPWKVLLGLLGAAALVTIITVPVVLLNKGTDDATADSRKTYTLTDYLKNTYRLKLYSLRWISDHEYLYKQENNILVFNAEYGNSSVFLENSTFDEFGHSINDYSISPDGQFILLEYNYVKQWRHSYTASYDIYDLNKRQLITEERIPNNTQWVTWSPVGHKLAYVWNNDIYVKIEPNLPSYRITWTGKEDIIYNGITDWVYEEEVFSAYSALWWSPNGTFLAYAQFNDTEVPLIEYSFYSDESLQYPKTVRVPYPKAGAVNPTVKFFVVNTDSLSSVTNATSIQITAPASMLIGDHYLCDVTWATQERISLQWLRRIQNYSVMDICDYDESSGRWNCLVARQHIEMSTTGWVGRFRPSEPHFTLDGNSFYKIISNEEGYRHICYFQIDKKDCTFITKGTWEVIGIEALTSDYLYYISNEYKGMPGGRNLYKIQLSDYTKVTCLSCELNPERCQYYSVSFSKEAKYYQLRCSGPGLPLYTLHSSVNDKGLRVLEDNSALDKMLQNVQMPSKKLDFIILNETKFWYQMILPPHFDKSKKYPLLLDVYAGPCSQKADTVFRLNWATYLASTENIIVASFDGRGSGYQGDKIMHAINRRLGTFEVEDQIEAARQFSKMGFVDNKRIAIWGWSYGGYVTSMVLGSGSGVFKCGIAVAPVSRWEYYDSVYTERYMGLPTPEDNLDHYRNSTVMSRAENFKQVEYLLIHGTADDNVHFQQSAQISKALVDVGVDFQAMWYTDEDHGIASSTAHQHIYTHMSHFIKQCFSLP

On to `NC(=O)CI` [IAA], for which the “inhibition of cytosolic AlaProAFC cleaving enzymatic activity” value on QPP was “partially inhibited”.

In the case of `NC(CCCCNC(=O)OCc1ccc([N+](=O)[O-])cc1)C(=O)N1CCCCC1` (stereo not shown) [Lys-piperidide, NO2-Z-Lys-piperidide], the “QPP inhibition (inhibitory profile)” value at QPP is “did inhibit QPP at higher concentrations than Lys-thiazolidide”. The DPIV inhibition result on DPIV is given as “does not inhibit DPIV”.

For the molecule `NC(CCCCNC(=O)OCc1ccc([N+](=O)[O-])cc1)C(=O)N1CCSC1` (stereo not shown) [Lys-thiazolidide, NO2-Z-Lys-thiazolidide], the “QPP inhibition (inhibitory profile)” value on QPP is reported as “most potent inhibitors”.

On to `CCN1C(=O)C=CC1=O` [NEM], for which the “inhibition of cytosolic AlaProAFC cleaving enzymatic activity” value on QPP is “partially inhibited”.

For the molecule `O=S(=O)(F)Cc1ccccc1` [PMSF], the “inhibition of cytosolic AlaProAFC cleaving enzymatic activity” value against QPP (setting [5]) is “partially inhibited”.

On to `Cc1ccc(S(=O)(=O)N[C@@H](CCCCN)C(=O)CCl)cc1` [TLCK], for which the “inhibition of cytosolic AlaProAFC cleaving enzymatic activity” value on QPP is recorded as “partially inhibited”.

As for `CC(C)[C@H](N)C(=O)N1CCC[C@H]1B(O)O` [VbP, Val-boroPro], the “T-cell death in CD26+ versus CD26- resting T-cell subpopulations” value in assay [1] (CD26+ and CD26- resting T-cells) is “to the same degree”. In addition, the entries for the “susceptibility to VbP-induced death” value (in [1] (purified T-cells (CD4+/CD8+) vs whole PBMC); in the assay with CD19+ B cells; in the assay on CD11b+ monocytes) were “greater sensitivity than whole PBMC”, “resistant” and “resistant”, respectively. For the same molecule, the “susceptibility of activated PBMC to induced PCD” value in the assay with activated PBMC was “resistant”. Besides, the “susceptibility to VbP-induced PCD after return to non-cycling phase (G0)” value with activated PBMC (activated PBMC maintained in culture until G0) is recorded as “regain sensitivity”. In assay [2], the “amount of PS on the surface of cells (FITC-annexin V)” value is given as “time-dependent increase”. For the same molecule, on QPP (PBMC cytosolic preparation (110,000 g supernatant)), the “inhibition of cytosolic AlaProAFC cleaving enzymatic activity” value is recorded as “inhibited”. For the same molecule, on QPP, the “QPP inhibition (inhibitory profile)” value is given as “most potent inhibitors”. Also, the “time at which dead cells were apparent after addition” value in [3] (PBMC cultures) came to 4 h. Besides, the “time to maximal death” value in assay [3] (PBMC cultures) is not above 24 h. Besides, the maximal death entry in assay [3] (PBMC cultures, within 24 hours) is “about 70%”. Further, in assay [3], the “number of dead cells / PCD induction in resting PBMC cultures” value (“number of dead cells / PCD induction” for short) is listed as “striking increase in the number of dead cells”.

For the molecule `COC(=O)C[C@H](NC(=O)[C@H](C)NC(=O)[C@@H](NC(=O)OCc1ccccc1)C(C)C)C(=O)CF` [Z-VADfmk] (Cbz-Val-Ala-Asp(OMe)-CH2F), in assay [1], the “effect on VbP-mediated T-cell death” value is on record as “blocked”.

Take `N=C(N)c1ccccc1` [benzamidine]: on QPP (setting [5]), the “inhibition of cytosolic AlaProAFC cleaving enzymatic activity” value is “partially inhibited”.

`CC(C)[C@@H](N)C(=O)N1CCC[C@H]1B(O)O` [d-Val-d-boroPro]: the “number of dead cells / PCD induction” value in assay [3] is “inactive”.

Regarding `CC(=O)N[C@@H](CSC(=O)[C@]1([C@@H](O)C(C)C)NC(=O)[C@H](C)[C@@H]1O)C(=O)O` [lactacystin], the “effect on VbP-mediated T-cell death” value in assay [1] is “neither the anti-Fas mAb M3 nor lactacystin had any effect”. Further, in the assay with activated PBMC, the “susceptibility of activated PBMC to induced PCD” value is “susceptible”. The “number of dead cells / PCD induction” value in [3] is “does not induce PCD”.

Take (Z)-Ala-[CF═C]-Pro-NHO-Bz(4NO2) [L-125]: the “QPP inhibition (inhibitory profile)” value at QPP was “did not inhibit QPP”.

As to “recombinant QPP: recombinant quiescent cell post-prolyl dipeptidase polypeptide expressed from a transgene in fibroblasts”, the “apoptosis of quiescent fibroblasts” value in assay [4] is “inhibited apoptosis”.

These data come from US6485955B1, “Quiescent cell dipeptidyl peptidase: a novel cytoplasmic serine protease” (The Trustees of Tufts University, priority 1997, dated 2002).
